These are literature values, as cited in patent publication US5209933A, “Long acting calcium channel blocker composition” (Syntex (U.S.A.) Inc., priority 1991, dated 1993).

Where two headings read alike, the source gives them in different places.

One series deals with calcium channel. To be noted: result in words.
The conditions of series [1]: result in words.
The conditions of series [2]: result in words. This is another data set of the same source.

On to “4-(3'-nitrophenyl)-2,6-dimethyl-1,4-dihydropyridine-3,5-dicarboxylic acid 3-methyl ester 5-(2-methoxyethyl)ester [nimodipine]”, for which, in the series with calcium channel, the “calcium channel blocking activity” value is “high degree of calcium channel blocking activity”.

`CCOC(=O)C1=C(C)NC(C)=C(C(=O)OCC)C1c1ccccc1C(F)F` [2,6-dimethyl-3,5-diethoxycarbonyl-4-(o-difluoromethylphenyl)-1,4-dichydropyridine]: in the series with calcium channel, the “calcium channel blocking activity” value was “high degree of calcium channel blocking activity”. In the case of `CCOC(=O)C1=C(C)NC(C)=C(C(=O)OC)C1c1cccc(Cl)c1Cl` (stereo not drawn) [felodipine, 4-(2',3'-dichloro)-2,6-dimethyl-1,4-dihydropyridine-3,5-dicarboxylic acid 3-ethyl ester 5-methyl ester], in the series on calcium channel, the “calcium channel blocking activity” value is “high degree of calcium channel blocking activity”. Regarding `COC(=O)C1=C(C)NC(C)=C(C(=O)OC(C)C)C1c1cccc([N+](=O)[O-])c1` (stereo not drawn) [isopropyl methyl 1,4-dihydro-2,6-dimethyl 4-(3-nitrophenyl)-3,5-pyridine dicarboxylate], in the series with calcium channel, the “calcium channel blocking activity” value is reported as “high degree of calcium channel blocking activity”. Turning to `COC(=O)C1=C(C)NC(C)=C(C(=O)OCCN(C)Cc2ccccc2)C1c1cccc([N+](=O)[O-])c1` (stereo not drawn) [nicardipine, 2,6-dimethyl-4-(3'-nitrophenyl)-1,4-dihydropyridine-3,5-dicarboxylic acid-3-β-(N-benzyl-N-methylamino)-ethyl ester 5-methyl ester], the first pass metabolism result in series [1] is “extensive first pass metabolism”. In addition, the “calcium channel blocking activity” value in the series with calcium channel was “high degree of calcium channel blocking activity”. Also, in series [2], the anti-ischemic properties result was “possesses anti-ischemic properties”. Take `COC(=O)C1=C(C)NC(C)=C(C(=O)OC)C1c1ccccc1[N+](=O)[O-]` [nifedipine, 4-(2'-nitrophenyl)-2,6-dimethyl-1,4-dihydropyridine-3,5-dicarboxylic acid dimethyl ester]: the “calcium channel blocking activity” value with calcium channel is listed as “high degree of calcium channel blocking activity”; in the series with calcium channel (listed as 4-(2'-nitrophenyl)-2,6-dimethyl-1,4-dihydropyridine-3,5-dicarboxylic acid dimeth) it was “shows calcium channel blocking activity”.

As for `CCCOCCOC(=O)C1=C(C)NC(C)=C(C(=O)OCCOCCC)C1c1cccc([N+](=O)[O-])c1` [niludipine, 4-(3'-nitrophenyl)-2,6-dimethyl-1,4-dihydropyridine-3,5-dicarboxylic acid di-n-propyloxethyl ester], the “calcium channel blocking activity” value in the series on calcium channel is reported as “high degree of calcium channel blocking activity”.

For `COC(=O)C1=C(C)NC(C)=C(C(=O)OCC(C)C)C1c1ccccc1[N+](=O)[O-]` (stereo not drawn) [nisoldipine, 4-(2'-nitrophenyl)-2,6-dimethyl-1,4-dihydropyridine-3,5-dicarboxylic acid 3-methyl ester 5-isobutyl ester], the “calcium channel blocking activity” value in the series with calcium channel is on record as “high degree of calcium channel blocking activity”. As to `CCOC(=O)C1=C(C)NC(C)=C(C(=O)OC)C1c1cccc([N+](=O)[O-])c1` (stereo not drawn) [nitrendipine, 4-(3'-nitrophenyl)-2,6-dimethyl-1,4-dihydropyridine-3,5-dicarboxylic acid 3-ethyl ester 5-methyl ester], in the series on calcium channel, the “calcium channel blocking activity” value is on record as “high degree of calcium channel blocking activity”.
